Source: ChEMBL document CHEMBL1135798, “Structure-activity relationships of the antimalarial agent artemisinin. 6. The development of predictive in vitro potency models using CoMFA and HQSAR methodologies” (2002)

What follows are molecules tested on Plasmodium falciparum (assay: Antimalarial activity against chloroquine-resistant, mefloquine-sensitive Plasmodium falciparum W2).
Type: functional

First: C[C@@H]1CC[C@H]2[C@@H](C)C(=O)N(Cc3ccccn3)[C@@H]3O[C@@]4(C)CC[C@@H]1[C@@]23O4
Second: C=CCN1C(=O)[C@H](C)[C@@H]2CC[C@@H](C)[C@@H]3CC[C@@]4(C)OO[C@]32[C@H]1O4
The “Log RA” value of the first is lower: -4 for the first, -0.04 for the second.

First: C[C@H]1[C@@H](O[C@@H](C)c2ccc(C(F)(F)F)cc2)O[C@@H]2O[C@@]3(C)CC[C@H]4[C@H](C)CC[C@@H]1[C@@]24OO3
Second: CC(=O)Oc1ccc([C@H](C)O[C@H]2O[C@@H]3O[C@@]4(C)CC[C@H]5[C@H](C)CC[C@@H]([C@H]2C)[C@@]35OO4)cc1
The “Log RA” value of the first is lower: 0.15 for the first, 0.68 for the second.

`C[C@@H]1CC[C@H]2CCO[C@@H]3O[C@@]4(CCCCc5ccccc5)CC[C@@H]1[C@@]23OO4` and `C[C@@H]1CC[C@H]2CC(=O)O[C@@H]3O[C@@]4(CCCCc5ccccc5)CC[C@@H]1[C@@]23OO4` are within 0.2 log units of each other in “Log RA” value: 0.58 for the first, 0.45 for the second.

First: CC[C@H]1C(=O)O[C@@H]2O[C@@]3(C)CC[C@H]4[C@H](C)CC[C@@H]1[C@@]24OO3
Second: C/C=C\C[C@@H]1C(=O)O[C@@H]2O[C@@]3(C)CC[C@H]4[C@H](C)CC[C@@H]1[C@@]24OO3
The “Log RA” value of the first is higher: 1.4 for the first, -1.1 for the second.

`C[C@@H]1CC[C@H]2[C@@H](CCc3ccccc3)C(=O)O[C@@H]3O[C@@]4(C)CC[C@@H]1[C@]32O4` and `C[C@@H]1CC[C@H]2[C@@H](CCCCc3ccccc3)C(=O)O[C@@H]3O[C@@]4(C)CC[C@@H]1[C@]32O4` are the same in “Log RA” value: -4 for the first, -4 for the second.

First: CCCCCC[C@H]1C(=O)O[C@@H]2O[C@@]3(C)CC[C@H]4[C@H](C)CC[C@@H]1[C@@]24O3
Second: CCCCC[C@H]1C(=O)O[C@@H]2O[C@@]3(C)CC[C@H]4[C@H](C)CC[C@@H]1[C@@]24OO3
The “Log RA” value of the first is lower: -4 for the first, 1.02 for the second.

First: CCO[C@H]1O[C@@H]2O[C@@]3(C)CC[C@H]4C(C)C(=O)C[C@@H]([C@H]1C)[C@@]24OO3 (stereo not given in full)
Second: CCO[C@H]1O[C@@H]2O[C@@]3(C)CC[C@H]4[C@H](C)CC[C@@H]([C@H]1C)[C@@]24O3
The “Log RA” value of the first is higher: 0.16 for the first, -4 for the second.

Compared with `CO[C@@H]1O[C@@]2(C)CC[C@H]3CCC[C@@H](CCOC(=O)N(c4ccccc4)c4ccccc4)[C@]31OO2`, `CO[C@H]1O[C@@]2(C)CC[C@H]3CCC[C@@H](CCOC(=O)c4ccccc4)[C@]31OO2` is lower in “Log RA” value: 1.06 for the first, -0.59 for the second.

Compared with `COc1ccc([C@@]23CCC[C@](c4ccc(OC)cc4)(CC2)OO3)cc1`, `c1ccc([C@@]23CCC[C@](c4ccccc4)(CC2)OO3)cc1` is lower in “Log RA” value: -0.67 for the first, -0.91 for the second.

First: C[C@@H]1CCC[C@@]23CO[C@@](C)(CC[C@@H]12)OO3
Second: CO[C@@]1(C)CC[C@H]2[C@H](C)CCC[C@]2(C=O)OO1
The “Log RA” value of the first is higher: -0.32 for the first, -4 for the second.

Compared with `CCCC[C@H]1C(=O)O[C@@H]2O[C@@]3(CCC(=O)OCC)CC[C@H]4[C@H](C)CC[C@@H]1[C@@]24OO3`, `C[C@@H]1CC[C@H]2[C@@H](CCc3ccccc3)C(=O)O[C@@H]3O[C@@]4(C)CC[C@@H]1[C@]32OO4` is higher in “Log RA” value: -1.36 for the first, 0.12 for the second.

First: C[C@@H]1CC[C@H]2[C@@H](C)C(=O)N[C@@H]3O[C@@]4(C)CC[C@@H]1[C@]32OO4
Second: C[C@@H]1CC[C@H]2[C@@H](C)C(=O)N(C)[C@@H]3O[C@@]4(C)CC[C@@H]1[C@@]23OO4
The “Log RA” value of the first is lower: 0 for the first, 0.43 for the second.

First: C[C@@H]1CC[C@H]2CC(=O)O[C@@H]3O[C@@]4(CCc5ccccc5)CC[C@@H]1[C@@]23OO4
Second: C[C@@H]1CC[C@H]2CC(=O)N(CCc3ccccc3)[C@@H]3O[C@@]4(C)CC[C@@H]1[C@@]23OO4
The “Log RA” value of the first is lower: -2 for the first, 0.16 for the second.

Going from `CO[C@H]1O[C@@]2(C)CC[C@H]3CCC[C@@H](CCOCc4c(C)noc4C)[C@]31OO2` to `CO[C@H]1O[C@@]2(C)CC[C@H]3CCC[C@@H](CCOCc4ccncc4)[C@]31OO2`, the “Log RA” value falls from 0.58 to 0.14.

`COC(=O)C[C@@H](C)OC1O[C@@H]2O[C@@]3(C)CC[C@H]4[C@H](C)CC[C@@H]([C@H]1C)[C@@]24OO3` (stereo not given in full) and `COC(=O)[C@@H](C)COC1O[C@@H]2O[C@@]3(C)CC[C@H]4[C@H](C)CC[C@@H]([C@H]1C)[C@@]24OO3` (stereo not given in full) are within 0.2 log units of each other in “Log RA” value: 1.7 for the first, 1.79 for the second.

`CC[C@H]1CO[C@@H]2O[C@@]3(C)CC[C@H]4[C@H](C)CC[C@@H]1[C@@]24OO3` and `CCC[C@H]1CO[C@@H]2O[C@@]3(C)CC[C@H]4[C@H](C)CC[C@@H]1[C@@]24OO3` are within 0.2 log units of each other in “Log RA” value: 0.67 for the first, 0.74 for the second.

Going from `C[C@@H]1CC[C@H]2[C@@H](C)CO[C@@H]3O[C@@]4(C)CC[C@@H]1[C@]32OO4` to `CC1CO[C@@H]2O[C@@]3(C)CC[C@H]4[C@H](C)CC[C@@H]1[C@@]24OO3` (stereo not given in full), the “Log RA” value falls from 0.75 to -0.79.

First: C[C@@H]1CC[C@H]2[C@@H](C)CO[C@@H]3O[C@@]4(C)CC[C@@H]1[C@]32O4
Second: C[C@@H]1CC[C@@H]2[C@@H](C)CO[C@@H]3C[C@]4(C)CC[C@@H]1[C@]23OO4
The “Log RA” value of the first is lower: -4 for the first, -0.24 for the second.

Compared with `C[C@@H]1CC[C@H]2CC(=O)N(CCCc3ccccc3)[C@@H]3O[C@@]4(C)CC[C@@H]1[C@@]23OO4`, `C[C@@H]1CC[C@H]2CC(=O)N(Cc3ccccc3)[C@@H]3O[C@@]4(C)CC[C@@H]1[C@@]23OO4` is higher in “Log RA” value: 0.02 for the first, 0.34 for the second.

First: CCOC(=O)[C@@H](O[C@H]1O[C@@H]2O[C@@]3(C)CC[C@H]4[C@H](C)CC[C@@H]([C@H]1C)[C@@]24OO3)c1ccccc1
Second: CCOC(=O)[C@H](O[C@H]1O[C@@H]2O[C@@]3(C)CC[C@H]4[C@H](C)CC[C@@H]([C@H]1C)[C@@]24OO3)c1ccccc1
The “Log RA” value of the first is higher: 1.25 for the first, 0.87 for the second.

First: C=C/N=N/[C@H]1C(=O)O[C@@H]2O[C@]3(C)CC[C@H]4[C@H](C)CC[C@@H]1[C@@]24OO3
Second: C[C@@H]1CC[C@H]2C3(CC3)C(=O)O[C@@H]3O[C@@]4(C)CC[C@@H]1[C@]32OO4
The “Log RA” value of the first is lower: -2.7 for the first, -0.94 for the second.

First: C[C@@H]1CC[C@H]2[C@H]3CCCO[C@H]3O[C@@H]3O[C@@]4(C)CC[C@@H]1[C@]32OO4
Second: C=C1C(O)O[C@@H]2O[C@@]3(C)CC[C@H]4[C@H](C)CC[C@@H]1[C@@]24OO3 (stereo not given in full)
The “Log RA” value of the first is higher: 0.23 for the first, -2.39 for the second.

Compared with `CO[C@H]1O[C@@]2(C)CC[C@H]3CCC[C@@H](CCOC(=O)CNC(=O)OC(C)(C)C)[C@]31OO2`, `CO[C@@H]1O[C@@]2(C)CC[C@H]3CCC[C@@H](CCOC(=O)N(C)C)[C@]31OO2` is higher in “Log RA” value: -0.04 for the first, 0.33 for the second.

First: c1ccc([C@]23CC[C@@](c4ccccc4)(COC2)OO3)cc1
Second: C[C@@H]1CCC[C@]23OO[C@](C)(CC[C@@H]12)O[C@H]3OC(=O)Cc1ccccc1
The “Log RA” value of the first is lower: -2.26 for the first, -0.51 for the second.

Going from `C[C@@H]1CCC2[C@@H](C)COC3OC4(CCCC4)OO[C@@]32C1` (stereo not given in full) to `C[C@@H]1CCC2[C@@H](C)COC3OC(C)(C)OO[C@@]32C1` (stereo not given in full), the “Log RA” value falls from -0.26 to -0.8.

First: C[C@@H]1CC[C@H]2[C@](C)(O)[C@H](O)O[C@@H]3O[C@@]4(C)CC[C@@H]1[C@]32OO4
Second: C[C@@H]1CC[C@@H]2[C@]34OO[C@](C)(CC[C@@H]13)O[C@H]4OC(=O)[C@@]21CCC1C[Si](C)(C)C (stereo not given in full)
The “Log RA” value of the first is higher: -0.89 for the first, -1.24 for the second.

Compared with `CC(C)C[C@@]12CC[C@H]3[C@H](C)CC[C@H]4CCO[C@H](O1)[C@]43OO2`, `CC(C)C[C@@]12CC[C@H]3[C@H](C)CC[C@H]4CCO[C@H](O1)[C@]43O2` is lower in “Log RA” value: 0.4 for the first, -4 for the second.

First: CO[C@H]1O[C@]2(C)OO[C@]13[C@H](CCO)CCC[C@@H]3C[C@@H]2C
Second: CCN(CC)C(=O)OCC[C@@H]1CCC[C@@H]2CC[C@@]3(C)OO[C@]21[C@H](OC)O3
The “Log RA” value of the first is lower: 0.23 for the first, 0.65 for the second.

Compared with `CCC[C@@H](Cc1ccccc1)OC1O[C@@H]2O[C@@]3(C)CC[C@H]4[C@H](C)CC[C@@H]([C@H]1C)[C@@]24OO3` (stereo not given in full), `COC(=O)c1ccc(COC2O[C@@H]3O[C@@]4(C)CC[C@H]5[C@H](C)CC[C@@H]([C@H]2C)[C@@]35OO4)cc1` (stereo not given in full) is lower in “Log RA” value: 0.31 for the first, -0.07 for the second.

`C[C@@H]1CCC2[C@@H](C)C(=O)OC3OC(C)(C)OO[C@@]32[C@H]1C` (stereo not given in full) and `CC1C(=O)O[C@@H]2C[C@@]3(C)CC[C@H]4[C@H](C)CC[C@@H]1[C@@]24OO3` (stereo not given in full) are within 0.2 log units of each other in “Log RA” value: -0.86 for the first, -0.96 for the second.

Going from `C[C@@H]1CC[C@H]2CC(=O)N(C)[C@@H]3O[C@@]4(C)CC[C@@H]1[C@@]23OO4` to `C[C@@H]1CC[C@H]2CC(=O)N(Cc3ccc(Cl)cc3)[C@@H]3O[C@@]4(C)CC[C@@H]1[C@@]23OO4`, the “Log RA” value falls from 0.7 to -0.16.

First: CCOC(=O)C[C@@H](O[C@H]1O[C@@H]2O[C@@]3(C)CC[C@H]4[C@H](C)CC[C@@H]([C@H]1C)[C@@]24OO3)c1ccc([N+](=O)[O-])cc1
Second: COC(=O)CCOC1O[C@@H]2O[C@@]3(C)CC[C@H]4[C@H](C)CC[C@@H]([C@H]1C)[C@@]24OO3 (stereo not given in full)
The “Log RA” value of the first is higher: 0.9 for the first, 0.1 for the second.

Compared with `CO[C@H]1O[C@@]2(C)CC[C@H]3CCC[C@@H](CCOS(=O)(=O)c4ccc(C)cc4)[C@]31OO2`, `CO[C@H]1O[C@]2(C)OO[C@]13[C@H](CCOCc1ccccc1)CCC[C@@H]3CC2(C)C` is lower in “Log RA” value: 0.2 for the first, -1.8 for the second.

Going from `CC(C)CC[C@H]1C(=O)O[C@@H]2O[C@@]3(C)CC[C@H]4[C@H](C)CC[C@@H]1[C@@]24O3` to `C[C@@H]1CC[C@H]2[C@@H](C)C(=O)N(c3cccs3)[C@@H]3O[C@@]4(C)CC[C@@H]1[C@@]23OO4`, the “Log RA” value rises from -4 to 0.17.

First: CO[C@H]1O[C@@]2(C)CC[C@H]3CCCC[C@]31OO2
Second: CC[C@@]12CC[C@H]3[C@H](C)CC[C@H]4CCO[C@H](O1)[C@]43OO2
The “Log RA” value of the first is higher: -0.31 for the first, -1 for the second.
